From patent US8530517B2, “Retinoid derivatives endowed with cytotoxic and/or antiangiogenic properties” (Sigma-Tau Industrie Farmaceutiche Riunite S.p.A., priority 2008, dated 2013)
Counter-ions that a name gives are not always drawn. Like-named read-outs stand apart in the source and are kept apart here.

How the values were obtained:
[1] = test system: NCI-H460 non-small cell lung carcinoma cells; assay: Cytotoxicity on NCI-H460 tumor cell line (sulphorodamine B test); format: cell-based; conditions: further 48 h in drug-free medium, read-out: NCI-H460 IC50 μM ± SD
Procedure: To evaluate the effect of the compounds on survival cells, the sulphorodamine B test was used. To test the effects of the compounds on cell growth, NCI-H460 non-small cell lung carcinoma cells were used. Tumor cells were grown in RPMI 1640 containing 10% fetal bovine serum (GIBCO).
Tumor cells were seeded in 96-well tissue culture plates at approximately 10% confluence and were allowed to attach and recover for at least 24 h. Varying concentrations of the drugs were then added to each well to calculate their IC50 value (the concentration which inhibits the 50% of cell survival). The plates were incubated at 37° C. for 24 h. At the end of the treatment, the plates were washed by remotion of the surnatant and addition of PBS. Medium culture (200 μL) was added again and the plates were incubated for further 48 h at 37° C. 200 μl PBS and 50 μl of cold 80% TCA were added. The plates were incubated on ice for at least 1 h. TCA was removed, the plates were washed 3 times for immersion in distilled-water and dried on paper and at 40° C. for 5 min. Then 200 μl of 0.4% sulphorodamine B in 1% acetic acid were added. The plates were incubated at room temperature for other 30 min. Sulphorodamine B was removed, the plates were washed for immersion in 1% acetic acid for 3 times, then they were dried on paper and at 40° C. for 5 min. Then 200 μl Tris 10 mM were added, the plates were kept under stirring for 20 min. The survival cell was determined as optical density by a Multiskan spectrofluorimeter at 540 nm. The amount of cells killed was calculated as the percentage decrease in sulphorodamine B binding compared with control cultures, the latter involving the use of (2E)-3-[3′-(1-adamantyl)-4′-hydroxy[1,1′-biphenyl]-4-yl]-2-propenoic acid (ST1926).
The IC50 values were calculated with the “ALLFIT” program.

[2] = test system: human ovarian cancer cell line A2780; assay: Cytotoxicity on A2780 tumor cell line; format: cell-based; conditions: 5 Mm as printed in head (text: 5 μM), preliminary results; for inhibition at 5 µM: Homo sapiens, A2780
Procedure: The antiproliferative effect of the compounds is reported as percentages of inhibition of cellular proliferation measured at 5 μM as reported in table 3.

[3] = Chemical stability in solution at various pH; format: physicochemical; conditions: after 24 h at pH 7.4
Procedure: The compounds were screened at various pH in order to test their relative chemical stability in solution. All of them resulted stable after incubation for 3 h at pH=1.2. Chemical stability was also investigated at pH=7.4 after 24 h incubation.

A431 tumour cells = assay: In vivo study on A431 epidermoid carcinoma; conditions: iv 10 mg/10 ml/kg, qdx3/wx2w, after two weeks of treatment, sc A431 in CD1 nude mice; p=0.036 versus vehicle
Procedure: The tumour was generated by subcutaneous injection of A431 tumour cells (5×10^6/100 μl/mouse), in 0.1 ml medium Tc199 in the right flank of CD1 nude mice. 3 days after tumour injection, ST5589 was delivered iv at a dose of 10 mg/10 ml/kg according to the schedule qdx3/wx2w in a group of 9 mice.
To evaluate the antitumour activity of ST5589, tumour diameters were measured biweekly with a Vernier caliper and tumour volume was calculated according to the formula TV=d^2×D/2
where d and D are the shortest and longest diameters, respectively.
The efficacy of the drug was assessed as the tumour volume inhibition according to the formula reported underneath: […]

[4] = Homo sapiens, NCI-H460, 24 h treatment

Row | Compound | IC50 [1, 4] | inhibition at 5 µM [2] | other results
1 | CCCCCCCCCCCNC(=O)Oc1ccc(-c2ccc(/C=C/C(=O)O)cc2)cc1C12CC3CC(CC(C3)C1)C2 [Example 10, (E)-3-(3′-adamantan-1-yl-4′-undecyl-carbamoyloxy-biphenyl-4-yl)-acrylic acid] |  |  | IC50 ([1]; 24 h treatment): 1.39 ± 0.04 µM; % Inhibition at 5 Mm on A2780 cell line [2]: 90%
2 | COCCOCOc1ccc(-c2ccc(/C=C/C(=O)O)cc2)cc1C12CC3CC(CC(C3)C1)C2 [Example 15, (E)-3-[3′-Adamantan-1-yl-4′-(2-methoxyethoxymethoxy)-biphenyl-4-yl]acrylic acid] | 4.2 ± 0.04 µM | 78% | 
3 | O=C(O)/C=C/c1ccc(-c2ccc(OCN3C(=O)c4ccccc4C3=O)c(C34CC5CC(CC(C5)C3)C4)c2)cc1 [Example 17, (E)-3-[3′-Adamantan-1-yl-4′-(1,3-dioxo-1,3-dihydroisoindol-2-ylmethoxy)-biphenyl-4yl]-acrylic acid] | 8.4 ± 1.6 µM |  | 
4 | O=C(O)/C=C/c1ccc(-c2ccc(OC(=O)NCC(=O)O)c(C34CC5CC(CC(C5)C3)C4)c2)cc1 [Example 7, (E)-3-(3′-adamantan-1-yl-4′-carboxymethylcarbamoyloxy-biphenyl-4-yl)-acrylic acid] | 3 ± 0.1 µM | 26% | 
5 | CC(C)C[C@H](NC(=O)Oc1ccc(-c2ccc(/C=C/C(=O)O)cc2)cc1C12CC3CC(CC(C3)C1)C2)C(=O)NCC(=O)O [Example 14, (E)-3-{3′-Adamantan-1-yl-4′-[(S)-1-(carboxymethyl-carbamoyl)-3-methyl-butylcarbamoyloxy]-biphenyl-4-yl}-acrylic acid] | 3.5 ± 0.2 µM |  | 
6 | O=C(O)/C=C/c1ccc(-c2ccc(O)c(C34CC5CC(CC(C5)C3)C4)c2)cc1 [Control, (2E)-3-[3′-(1-adamantyl)-4′-hydroxy[1,1′-biphenyl]-4-yl]-2-propenoic acid, reference compound] | 0.13 µM |  | 
7 | CC(C)[C@H](N)C(=O)Oc1ccc(-c2ccc(/C=C/C(=O)O)cc2)cc1C12CC3CC(CC(C3)C1)C2 [Example 1, (S)-2-amino-3-methyl-butyric acid 3-adamantan-1-yl-4′-((E)-2-carboxy-vinyl)-biphenyl-4-yl ester hydrochloride] | 0.51 ± 0.003 µM | 93% | 
8 | O=C(O)/C=C/c1ccc(-c2ccc(OC(=O)COCCOCCOCC(=O)O)c(C34CC5CC(CC(C5)C3)C4)c2)cc1 [Example 2, (E)-3-(3′-adamantan-1-yl-4′-{2-[2-(2-carboxymethoxy-ethoxy)-ethoxy]-acetoxy}-biphenyl-4-yl)-acrylic acid] | 0.17 ± 0.007 µM | 93% | 
9 | CCCCCC=CC/C=C/CCCCCCCC(=O)Oc1ccc(-c2ccc(C=CC(=O)O)cc2)cc1C12CC3CC(CC(C3)C1)C2 [Example 18, (E)-Octadeca-9,12-dienoic acid 3-adamantan-1-yl-4′-(2-carboxyvinyl)-biphenyl-4-yl ester] | 7.8 ± 0.7 µM | 55% | 
10 | CCCCCCCCCCC(=O)Oc1ccc(-c2ccc(/C=C/C(=O)O)cc2)cc1C12CC3CC(CC(C3)C1)C2 [Example 3, undecanoic acid 3-adamantan-1-yl-4′-((E)-2-carboxy-vinyl)-biphenyl-4-yl ester] | 1.54 ± 0.08 µM | 94% | 
11 | NC1(C(=O)Oc2ccc(-c3ccc(/C=C/C(=O)O)cc3)cc2C23CC4CC(CC(C4)C2)C3)CC1.O=C(O)C(F)(F)F [Example 20, (E)-1-[3-Adamantan-1-yl-4′-(2-carboxyvinyl)-biphenyl-4-yloxycarbonyl]-cyclopropyl-ammonium trifluoroacetate] | 0.1 ± 0.003 µM | 94% | amount of E-4-(3-(1-adamantyl)-4-hydroxyphenyl)cinnamic acid (hydrolysed parent compound) [3]: 8%
12 | O=C(O)/C=C/c1ccc(-c2ccc(OC(=O)NCCN3CCOCC3)c(C34CC5CC(CC(C5)C3)C4)c2)cc1 [Example 9, (E)-3-[3′-adamantan-1-yl-4′-(2-morpholin-4-yl-ethyl-carbamoyloxy)-biphenyl-4-yl]-acrylic acid hydrochloride] | 0.92 ± 0.05 µM | 90% | 
13 | O=C(O)/C=C/c1ccc(-c2ccc(OC(=O)C3CC3)c(C34CC5CC(CC(C5)C3)C4)c2)cc1 [Example 16, (E)-cyclopropanecarboxylic acid 3-adamantan-1-yl-4′-(2-carboxyvinyl)-biphenyl-4-yl ester] |  |  | IC50 ([1]; 24 h treatment): 0.85 ± 0.03 µM; % Inhibition at 5 Mm on A2780 cell line [2]: 93%
14 | CC(C)NC(=O)Oc1ccc(-c2ccc(/C=C/C(=O)O)cc2)cc1C12CC3CC(CC(C3)C1)C2 [Example 12] |  |  | IC50 ([1]; 24 h treatment): 5 µM
15 | O=C(O)/C=C/c1ccc(-c2ccc(OC(=O)NC3CCN(C(=O)OCc4ccccc4)CC3)c(C34CC5CC(CC(C5)C3)C4)c2)cc1 [Example 13, 4-[3-adamantan-1-yl-4′-((E)-2-carboxy-vinyl)-biphenyl-4-yloxycarbonylamino]-piperidine-1-carboxylic acid benzyl ester] | 5 µM | 71% | 
16 | CNCCNC(=O)Oc1ccc(-c2ccc(/C=C/C(=O)O)cc2)cc1C12CC3CC(CC(C3)C1)C2 [Example 6, (E)-3-[3′-adamantan-1-yl-4′-(2-methylamino-ethylcarbamoyloxy)-biphenyl-4-yl]-acrylic acid] | 0.24 ± 0.008 µM | 93% | 
17 | CN1CCN(CCCC(=O)Oc2ccc(-c3ccc(/C=C/C(=O)O)cc3)cc2C23CC4CC(CC(C4)C2)C3)CC1 [Example 5, 4-(4-methyl-piperazin-1-yl)-butyric acid 3-adamantan-1-yl-4′-((E)-2-carboxy-vinyl)-biphenyl-4-yl ester dihydrochloride] | 0.24 ± 0.01 µM | 92% | 
18 | NCCCCNC(=O)Oc1ccc(-c2ccc(/C=C/C(=O)O)cc2)cc1C12CC3CC(CC(C3)C1)C2 [Example 8, (E)-3-[3′-adamantan-1-yl-4′-(4-amino-butylcarbamoyloxy)-biphenyl-4-yl]-acrylic acid hydrochloride] | 2.6 ± 0.08 µM | 70% | 
19 | Cl.O=C(O)/C=C/c1ccc(-c2ccc(OC(=O)CCCN3CCOCC3)c(C34CC5CC(CC(C5)C3)C4)c2)cc1 [Example 4, 4-morpholin-4-yl-butyric acid 3-adamantan-1-yl-4′-((E)-2-carboxy-vinyl)-biphenyl-4-yl ester hydrochloride] | 0.22 ± 0.009 µM | 94% | reduction in tumour volume (tumour volume inhibition) (A431 tumour cells): 34%
20 | O=C(O)/C=C/c1ccc(-c2ccc(OCCN3CCOCC3)c(C34CC5CC(CC(C5)C3)C4)c2)cc1 [Example 23, (E)-3-[3′-Adamantan-1-yl-4′-(2-morpholin-4-yl-ethoxy)biphenyl-4-yl]-acrylic acid] | > 5 µM |  | 
21 | N#CCOc1ccc(-c2ccc(/C=C/C(=O)O)cc2)cc1C12CC3CC(CC(C3)C1)C2 [Example 21, (E)-3-(3′-Adamantan-1-yl-4′-cyanomethoxybiphenyl-4-yl)-acrylic acid] | 0.85 ± 0.06 µM |  | 
22 | O=C(O)/C=C/c1ccc(-c2ccc(OC(=O)N3CCC(N4CCCCC4)CC3)c(C34CC5CC(CC(C5)C3)C4)c2)cc1 [Example 11, [1,4′]bipiperidinyl-1′-carboxylic acid 3-adamantan-1-yl-4′-((E)-2-carboxy-vinyl)-biphenyl-4-yl ester hydrochloride] | > 20 µM |  | 
23 | CCCOC(=O)OCOc1ccc(-c2ccc(/C=C/C(=O)O)cc2)cc1C12CC3CC(CC(C3)C1)C2 [Example 19] |  |  | IC50 ([1]; 24 h treatment): 0.32 ± 0.01 µM
